Experimental data reported in ChEMBL document CHEMBL3639166, “Heteroaryloxyheterocyclyl compounds as PDE10 inhibitors” (2013).

These molecules were tested against T1, cAMP and cAMP-inhibited cGMP 3',5'-cyclic phosphodiesterase 10A (Rattus norvegicus, UniProt Q9QYJ6) (assay: Enzyme Inhibition Assay: Enzyme activity: An IMAP TR-FRET assay was used to analyze the enzyme activity (Molecular Devices Corp., Sunnyvale, Calif).).
T1 sequence (Q9QYJ6 whole entry): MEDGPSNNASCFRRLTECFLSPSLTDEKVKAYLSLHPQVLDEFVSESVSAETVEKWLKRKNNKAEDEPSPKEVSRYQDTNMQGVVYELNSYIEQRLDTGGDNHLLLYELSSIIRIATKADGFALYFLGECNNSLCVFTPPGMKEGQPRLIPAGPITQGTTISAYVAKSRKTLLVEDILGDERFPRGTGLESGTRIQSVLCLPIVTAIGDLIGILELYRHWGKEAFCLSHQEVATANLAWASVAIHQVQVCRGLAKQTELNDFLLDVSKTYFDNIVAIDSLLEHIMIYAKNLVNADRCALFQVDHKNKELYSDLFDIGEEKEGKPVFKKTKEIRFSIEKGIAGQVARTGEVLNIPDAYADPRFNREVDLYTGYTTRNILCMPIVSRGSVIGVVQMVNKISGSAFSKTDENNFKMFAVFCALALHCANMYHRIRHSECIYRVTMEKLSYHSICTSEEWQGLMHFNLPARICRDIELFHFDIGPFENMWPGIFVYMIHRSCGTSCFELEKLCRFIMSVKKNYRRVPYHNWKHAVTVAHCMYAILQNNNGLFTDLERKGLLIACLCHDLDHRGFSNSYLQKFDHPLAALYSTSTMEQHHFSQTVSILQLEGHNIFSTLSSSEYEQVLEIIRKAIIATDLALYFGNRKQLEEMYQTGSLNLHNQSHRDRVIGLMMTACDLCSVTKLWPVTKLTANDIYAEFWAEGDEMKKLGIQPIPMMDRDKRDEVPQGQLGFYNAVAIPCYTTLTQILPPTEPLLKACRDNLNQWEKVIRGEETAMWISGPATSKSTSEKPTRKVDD

| Structure (SMILES) | IC50 [nM] |
| --- | --- |
| O=C1CCC(c2nccnc2OC2CN(C(=O)c3nc4ccccc4[nH]3)C2)CC1 | 114 |
| c1ccc2c(N3CCC(Oc4nccnc4C4CCOCC4)CC3)nccc2c1 | 2810 |
| Cc1cc(F)ccc1-c1nccnc1OC1CN(c2ccc3ccccc3n2)C1 | 918 |
| CC(=O)N1CCC(c2nccnc2OC2CCN(c3ccc4ccccc4n3)CC2)CC1 | 1640 |
| Cc1cc(-c2cccnc2OC2CCN(C(=O)c3nccc4ccccc34)CC2)ccn1 | 2130 |
| CS(=O)(=O)N1CCC(c2nccnc2OC2CN(c3ccc4ccccc4n3)C2)CC1 | 208 |
| COC(=O)C1CCN(c2ncc(Br)c(OC3CN(c4ccc5ccccc5n4)C3)n2)CC1 | 1340 |
| CC(=O)N1CC=C(c2nccnc2OC2CCN(C(=O)c3nc4ccccc4[nH]3)CC2)CC1 | 71.8 |
| CC(C)(C)OC(=O)N1CCC=C(c2nccnc2OC2CN(C(=O)c3nc4ccccc4[nH]3)C2)C1 | 227 |
| Cc1cnc(OC2CN(c3ccc4ccccc4n3)C2)c(N2CCC(CO)CC2)c1 | 1.52 |
| Cc1ccc(-c2cnc(N3CCC(CO)CC3)nc2OC2CN(c3ccc4ccccc4n3)C2)cn1 | 0.2 |
| O[C@@H]1CCN(c2nccnc2OC2CCN(c3ccc4ccccc4n3)CC2)C1 | 356 |
| CC(=O)N1CCC(c2cccnc2OC2CCN(c3cccc(C)n3)CC2)CC1 | 1180 |
| O=C(c1cc(Cl)ccn1)N1CCC(Oc2ncccc2C2CCOCC2)CC1 | 8890 |
| OCC1CCN(c2ncc(C3=CCOCC3)c(OC3CN(c4ccc5ccccc5n4)C3)n2)CC1 | 1.1 |
| c1cnc(O[C@@H]2CCN(c3ccc4ccccc4n3)C2)c(C2CCOCC2)c1 | 384 |
| O=C(c1nc2ccccc2[nH]1)N1CC(Oc2nccnc2N2CCC(O)CC2)C1 | 186 |
| c1cnc(OC2CCN(c3cc4ccccc4cn3)CC2)c(C2CCOCC2)c1 | 353 |
| CC(=O)N1CCC(c2nccnc2OC2CCN(c3ccccn3)CC2)CC1 | 2850 |
| CC(C)(C)OC(=O)N1CC(Oc2ncccc2[C@H]2CC[C@H](O)CC2)C1 | 15.8 |
| Cc1cccc(-c2nccnc2OC2CN(c3ccc4ccccc4n3)C2)c1 | 57.3 |

| Structure (SMILES) | IC50 [nM] |
| --- | --- |
| CC(=O)N1CCC(c2nc3ccccc3nc2OC2CN(c3ccc4ccccc4n3)C2)CC1 | 2.9 |
| OCC1CN(c2nccnc2OC2CN(c3ccc4ccccc4n3)C2)CCO1 (configuration not stated) | 88.6 |
| OCC1CCN(c2nccnc2O[C@@H]2CCN(c3ccc4ccccc4n3)C2)CC1 | 167 |
| COCC(=O)N1CCC(c2nccnc2OC2CN(c3ccc4ccccc4n3)C2)CC1 | 165 |
| Cc1ccnc(N2CCC(Oc3nccnc3C3CCOCC3)CC2)c1 | 1330 |
| OCC1CCN(c2nccnc2NC2CN(c3ccc4ccccc4n3)C2)CC1 | 20 |
| COc1ccccc1-c1nccnc1OC1CN(c2ccc3ccccc3n2)C1 | 150 |
| c1cnc(OC2CCN(c3nccc4ccccc34)CC2)c(C2CCOCC2)c1 | 1810 |
| CC(=O)N1CCCC(c2cccnc2OC2CN(C(=O)c3cc4ccccc4[nH]3)C2)C1 (configuration not stated) | 886 |
| COc1ncccc1-c1cnc(N2CCC(CO)CC2)nc1OC1CN(c2ccc3ccccc3n2)C1 | 0.6 |
| OCc1cccc(-c2nccnc2OC2CN(c3ccc4ccccc4n3)C2)c1 | 23.3 |
| O[C@H]1CCN(c2nccnc2OC2CCN(c3ccc4ccccc4n3)CC2)C1 | 198 |
| OCc1ccc(N2CCC(Oc3ncccc3C3CCOCC3)CC2)nc1 | 1170 |
| CC(=O)N1CCC(c2nccnc2OC2CCN(c3cccc(C)n3)CC2)CC1 | 1050 |
| CC(=O)N1CCC(c2cccnc2OC2CCN(c3ncccc3Cl)CC2)CC1 | 3580 |
| OCc1ccc(-c2nccc(OC3CN(c4ccc5ccccc5n4)C3)n2)cc1 | 8.45 |
| Cc1ccc(N2CCC(Oc3ncccc3C3CCOCC3)CC2)nc1 | 262 |
| c1cnc(OC2CCN(c3nc4ccccc4[nH]3)CC2)c(C2CCOCC2)c1 | 199 |
| Cc1ncccc1-c1nccnc1OC1CN(c2ccc3ccccc3n2)C1 | 135 |
| CC(=O)N1CCN(c2nccnc2OC2CN(c3ccc4ccccc4n3)C2)CC1 | 77.5 |
| Cc1cc(-c2cccnc2OC2CCN(C(=O)c3ccc4ccccc4n3)CC2)ccn1 | 1230 |
